From patent US8927717B1, “Thiochromeno[2,3-c]quinolin-12-one derivatives, preparation method and application thereof” (National Defense Medical Center, priority 2014, dated 2015)

What was measured:
Assay type in all cases: cell-based
[1] = test system: K-562; settings: K-562; 10^−5 molar
[2] = test system: MOLT-4; settings: MOLT-4; 10^−5 molar
[3] = test system: SR; settings: SR; 10^−5 molar
[4] = test system: A549/ATCC; settings: A549/ATCC; 10^−5 molar
[5] = test system: HOP-62; settings: HOP-62; 10^−5 molar
[6] = test system: NCI-H226; settings: NCI-H226; 10^−5 molar
[7] = test system: NCI-H23; settings: NCI-H23; 10^−5 molar
[8] = test system: NCI-H522; settings: NCI-H522; 10^−5 molar
[9] = test system: HCT-15; settings: HCT-15; 10^−5 molar
[10] = test system: HT29; settings: HT29; 10^−5 molar
[11] = test system: KM12; assay: cells; settings: KM12; 10^−5 molar
[12] = test system: SW-620; settings: SW-620; 10^−5 molar
[13] = test system: SF-268; settings: SF-268; 10^−5 molar
[14] = test system: SF-295; settings: SF-295; 10^−5 molar
[15] = test system: SNB-19; settings: SNB-19; 10^−5 molar
[16] = test system: SNB-75; settings: SNB-75; 10^−5 molar
[17] = test system: U251; settings: U251; 10^−5 molar
[18] = test system: LOX IMVI; settings: LOX IMVI; 10^−5 molar
[19] = test system: MALME-3M; settings: MALME-3M; 10^−5 molar
[20] = test system: MDA-MB-435; settings: MDA-MB-435; 10^−5 molar
[21] = test system: SK-MEL-28; settings: SK-MEL-28; 10^−5 molar
[22] = test system: UACC-62; settings: UACC-62; 10^−5 molar
[23] = test system: OVCAR-5; settings: OVCAR-5; 10^−5 molar
[24] = test system: OVCAR-8; settings: OVCAR-8; 10^−5 molar
[25] = test system: NCI/ADR-RES; settings: NCI/ADR-RES; 10^−5 molar
[26] = test system: 786-0; settings: 786-0; 10^−5 molar
[27] = test system: A498; settings: A498; 10^−5 molar
[28] = test system: ACHN; settings: ACHN; 10^−5 molar
[29] = test system: RXF 393; settings: RXF 393; 10^−5 molar
[30] = test system: SN12C; settings: SN12C; 10^−5 molar
[31] = test system: TK-10; settings: TK-10; 10^−5 molar
[32] = test system: UO-31; settings: UO-31; 10^−5 molar
[33] = test system: DU-145; settings: DU-145; 10^−5 molar
[34] = test system: MCF7; settings: MCF7; 10^−5 molar
[35] = test system: MDA-MB-231/ATCC; settings: MDA-MB-231/ATCC; 10^−5 molar
[36] = test system: HS 578T; settings: HS 578T; 10^−5 molar
[37] = test system: T-47D; settings: T-47D; 10^−5 molar
[38] = test system: MDA-MB-486; settings: MDA-MB-486; 10^−5 molar
[39] = test system: 60 cancer cell lines; assay: NCI 60-cell screen, SRB, whole panel (mean, delta, range); settings: 10^−5 molar; for Growth percent, Delta: delta over panel; for Growth percent, Mean: mean over panel; for Growth percent, Range: range over panel

O=c1c2cc(Cl)ccc2sc2c(NCCc3ccccc3)nc3ccccc3c12 [Compound N30, 10-Chloro-6-(phenethylamino)-12H-thiochromeno[2,3-c]quinolin-12-one]
Growth percent [1]: 82.82%
Growth percent [2]: 87.33%
Growth percent [3]: 89.88%
Growth percent [4]: 88.44%
Growth percent [5]: 103.19%
Growth percent [6]: 77.00%
Growth percent [7]: 89.89%
Growth percent [8]: 93.93%
Growth percent [9]: 91.82%
Growth percent [10]: 109.15%
Growth percent [11]: 90.99%
Growth percent [12]: 93.45%
Growth percent [13]: 101.32%
Growth percent [14]: 95.46%
Growth percent [15]: 100.6%
Growth percent [16]: 68.76%
Growth percent [17]: 96.78%
Growth percent [18]: 89.03%
Growth percent [19]: 122.61%
Growth percent [20]: 106.06%
Growth percent [21]: 98.94%
Growth percent [22]: 74.67%
Growth percent [23]: 102.03%
Growth percent [24]: 95.61%
Growth percent [25]: 96.51%
Growth percent [26]: 108.00%
Growth percent [27]: 83.22%
Growth percent [28]: 90.85%
Growth percent [29]: 96.74%
Growth percent [30]: 86.54%
Growth percent [31]: 122.13%
Growth percent [32]: 75.82%
Growth percent [33]: 100.17%
Growth percent [34]: 60.91%
Growth percent [35]: 79.55%
Growth percent [36]: 87.62%
Growth percent [37]: 71.96%
Growth percent [38]: 63.11%
Growth percent, Delta [39]: 32.31%
Growth percent, Mean [39]: 93.22%
Growth percent, Range [39]: 61.70%

O=c1c2cc(Cl)ccc2sc2c(NCc3ccc4c(c3)OCO4)nc3ccccc3c12 [Compound N27, 6-((Benzo[d][1,3]dioxol-5-ylmethyl)amino)-10-chloro-12H-thiochromeno[2,3-c]quinolin-12-one]
Growth percent [1]: 80.37%
Growth percent [2]: 87.55%
Growth percent [3]: 79.57%
Growth percent [4]: 104.74%
Growth percent [5]: 78.01%
Growth percent [6]: 53.50%
Growth percent [7]: 79.93%
Growth percent [8]: 78.43%
Growth percent [9]: 77.41%
Growth percent [10]: 82.91%
Growth percent [11]: 87.96%
Growth percent [12]: 76.95%
Growth percent [13]: 93.24%
Growth percent [14]: 94.39%
Growth percent [15]: 97.62%
Growth percent [16]: 57.14%
Growth percent [17]: 81.03%
Growth percent [18]: 78.69%
Growth percent [19]: 81.64%
Growth percent [20]: 91.64%
Growth percent [21]: 88.24%
Growth percent [22]: 72.96%
Growth percent [23]: 84.38%
Growth percent [24]: 79.45%
Growth percent [25]: 91.11%
Growth percent [26]: 95.83%
Growth percent [27]: 75.91%
Growth percent [28]: 58.48%
Growth percent [29]: 74.20%
Growth percent [30]: 85.53%
Growth percent [31]: 116.79%
Growth percent [32]: 80.98%
Growth percent [33]: 72.44%
Growth percent [34]: 43.53%
Growth percent [35]: 54.65%
Growth percent [36]: 70.49%
Growth percent [37]: 74.41%
Growth percent [38]: 60.47%
Growth percent, Delta [39]: 36.65%
Growth percent, Mean [39]: 81.18%
Growth percent, Range [39]: 73.26%
